Read-outs that look alike come from different tables or passages of the source.
Legend:
[1] = hypertensives; 5-7 mM (310-434 mg/L/day) nitrate; cited from earlier work

Q: With O=[N+]([O-])[O-].[K+] [KNO3, potassium nitrate] as the molecule, how does the salivary nitrite (ingestion) read?
A: The salivary nitrite was “elevated”.

Q: What about the “Salivary NO2” value (subject 1, 500 mg KNO3 (5 mg/Kg) at 8:00, time 1:00PM) of the same molecule?
A: The value was 120 µM.

Q: What about the “Salivary NO2” value (subject 1, 500 mg KNO3 (5 mg/Kg) at 8:00, time 2:00) of the same molecule?
A: The value was 110 µM.

Q: And the “Salivary NO2” value (subject 1, 500 mg KNO3 (5 mg/Kg) at 8:00, time 2:45)?
A: Its value is under 20 µM.

Q: And the “Salivary NO2” value (subject 1, 500 mg KNO3 (5 mg/Kg) at 8:00, time 9:00)?
A: The value was 400 µM.

Q: What about the “Salivary NO2” value (subject 1, 500 mg KNO3 (5 mg/Kg) at 8:00, time 11:00) of the same molecule?
A: The value was 220 µM.

Q: What about the “Salivary NO2” value (subject 1, 500 mg KNO3 (5 mg/Kg) at 8:00, time 11:40) of the same molecule?
A: The value was 110 µM.

Q: What about the “Salivary NO2” value (subject 2, 1,000 mg KNO3 (12 mgNO3/Kg) at 10:00, time 3:00) of the same molecule?
A: The value was 220 µM.

Q: What about the “Salivary NO2” value (subject 2, 1,000 mg KNO3 (12 mgNO3/Kg) at 10:00, time 4:00) of the same molecule?
A: Its value is 110 µM.

Q: What about the “Salivary NO2” value (subject 2, 1,000 mg KNO3 (12 mgNO3/Kg) at 10:00, time 5:45) of the same molecule?
A: The value was 20 µM.

Q: And the “Salivary NO2” value (subject 2, 1,000 mg KNO3 (12 mgNO3/Kg) at 10:00, time 10:30)?
A: The value was 200 µM.

Q: With O=C1O[C@H]([C@@H](O)CO)C(O)=C1O [ascorbate] as the molecule, how does the “nitric oxide bioavailability (salivary nitrite as surrogate marker)” value (human, in vivo) read?
A: The value was “boosted and extended”.

Q: For O=[N+]([O-])O [nitrate], which “reduction of systolic blood pressure” value [1] is on record?
A: The value was 4-11 mmHg.

Source: US11844811B2, “Methods and compositions for alleviating respiratory dysfunction” (MYFITSTRIP LLC, priority 2018, dated 2023)
